Among the data in patent US12479847B2 (DANA-FARBER CANCER INSTITUTE, INC., priority 2019, dated 2025) are remaining binding values, retold here.

Common to all, as to test: KINOMEscan (ScanMAX) kinase profiling
What all share (format): binding

Assay [1] has as its target T1, panel of 468 kinases (Homo sapiens, UniProt O00444).
T1 construct: purchased KINOMEscan (ScanMAX) service
T1 sequence (O00444 1-970): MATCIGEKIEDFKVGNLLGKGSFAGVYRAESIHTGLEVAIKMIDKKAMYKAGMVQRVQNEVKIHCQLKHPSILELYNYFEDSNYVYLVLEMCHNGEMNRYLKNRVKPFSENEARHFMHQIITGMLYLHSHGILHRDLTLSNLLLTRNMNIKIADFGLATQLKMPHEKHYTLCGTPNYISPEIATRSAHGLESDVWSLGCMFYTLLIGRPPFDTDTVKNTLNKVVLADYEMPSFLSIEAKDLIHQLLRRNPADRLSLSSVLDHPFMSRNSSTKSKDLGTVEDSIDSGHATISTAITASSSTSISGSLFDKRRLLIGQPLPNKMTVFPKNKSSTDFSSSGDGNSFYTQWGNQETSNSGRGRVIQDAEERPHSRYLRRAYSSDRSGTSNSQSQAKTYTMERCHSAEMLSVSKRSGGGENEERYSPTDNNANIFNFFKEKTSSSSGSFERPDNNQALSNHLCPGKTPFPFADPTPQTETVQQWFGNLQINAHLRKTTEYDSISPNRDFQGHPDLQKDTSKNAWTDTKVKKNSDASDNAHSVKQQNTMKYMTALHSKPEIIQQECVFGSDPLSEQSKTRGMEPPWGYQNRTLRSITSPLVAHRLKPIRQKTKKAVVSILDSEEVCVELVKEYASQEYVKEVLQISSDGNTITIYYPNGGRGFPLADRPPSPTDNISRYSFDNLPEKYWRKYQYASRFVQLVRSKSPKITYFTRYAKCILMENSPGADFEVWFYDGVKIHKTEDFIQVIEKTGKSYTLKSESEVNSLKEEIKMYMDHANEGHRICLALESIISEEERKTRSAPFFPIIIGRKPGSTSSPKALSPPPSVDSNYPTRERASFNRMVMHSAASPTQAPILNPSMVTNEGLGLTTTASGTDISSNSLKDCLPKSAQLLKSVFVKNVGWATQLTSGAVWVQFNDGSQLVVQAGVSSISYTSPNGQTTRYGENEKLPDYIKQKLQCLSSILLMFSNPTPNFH
Particulars: PLK4; 1 μM; read-out: % control.

Assay [2] addresses T2, panel of 468 kinases (Homo sapiens, UniProt P17612).
T2 construct: purchased KINOMEscan (ScanMAX) service
Particulars: PKAC-alpha; 1 μM; read-out: % control.

Assay [3] addresses T3, panel of 468 kinases (Homo sapiens, UniProt P42336).
T3 construct: purchased KINOMEscan (ScanMAX) service
Particulars: PIK3CA; 1 μM; read-out: % control.

The target in assay [4] is T4, panel of 468 kinases (Homo sapiens, UniProt Q8NEB9).
T4 construct: purchased KINOMEscan (ScanMAX) service
T4 sequence (Q8NEB9 whole entry): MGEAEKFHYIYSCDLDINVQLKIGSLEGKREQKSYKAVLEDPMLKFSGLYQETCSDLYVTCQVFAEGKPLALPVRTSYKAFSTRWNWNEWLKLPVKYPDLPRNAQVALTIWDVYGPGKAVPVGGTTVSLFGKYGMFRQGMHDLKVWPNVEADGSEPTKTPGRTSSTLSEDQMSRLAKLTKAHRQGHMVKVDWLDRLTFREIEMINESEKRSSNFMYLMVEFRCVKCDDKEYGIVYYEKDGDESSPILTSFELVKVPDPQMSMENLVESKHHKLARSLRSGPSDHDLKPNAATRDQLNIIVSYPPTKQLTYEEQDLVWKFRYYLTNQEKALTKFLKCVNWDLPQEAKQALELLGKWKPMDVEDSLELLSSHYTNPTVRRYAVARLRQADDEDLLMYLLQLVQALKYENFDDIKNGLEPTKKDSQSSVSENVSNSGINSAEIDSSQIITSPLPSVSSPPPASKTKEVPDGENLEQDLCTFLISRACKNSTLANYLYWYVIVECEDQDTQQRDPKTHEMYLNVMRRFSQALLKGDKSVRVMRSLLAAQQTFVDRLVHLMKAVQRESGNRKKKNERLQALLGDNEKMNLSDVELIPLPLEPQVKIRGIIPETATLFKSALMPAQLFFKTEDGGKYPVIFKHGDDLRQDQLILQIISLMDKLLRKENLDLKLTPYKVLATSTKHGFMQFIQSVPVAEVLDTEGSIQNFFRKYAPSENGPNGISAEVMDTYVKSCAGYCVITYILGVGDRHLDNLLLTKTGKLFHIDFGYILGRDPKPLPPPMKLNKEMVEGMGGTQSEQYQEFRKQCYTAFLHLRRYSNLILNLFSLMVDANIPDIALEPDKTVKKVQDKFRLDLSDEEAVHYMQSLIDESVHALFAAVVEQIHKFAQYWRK
As to conditions: VPS34; 1 μM; read-out: % control.

Assay [5] addresses T5, panel of 468 kinases (Homo sapiens, UniProt Q9UL54).
T5 construct: purchased KINOMEscan (ScanMAX) service
T5 sequence (Q9UL54 1-1235): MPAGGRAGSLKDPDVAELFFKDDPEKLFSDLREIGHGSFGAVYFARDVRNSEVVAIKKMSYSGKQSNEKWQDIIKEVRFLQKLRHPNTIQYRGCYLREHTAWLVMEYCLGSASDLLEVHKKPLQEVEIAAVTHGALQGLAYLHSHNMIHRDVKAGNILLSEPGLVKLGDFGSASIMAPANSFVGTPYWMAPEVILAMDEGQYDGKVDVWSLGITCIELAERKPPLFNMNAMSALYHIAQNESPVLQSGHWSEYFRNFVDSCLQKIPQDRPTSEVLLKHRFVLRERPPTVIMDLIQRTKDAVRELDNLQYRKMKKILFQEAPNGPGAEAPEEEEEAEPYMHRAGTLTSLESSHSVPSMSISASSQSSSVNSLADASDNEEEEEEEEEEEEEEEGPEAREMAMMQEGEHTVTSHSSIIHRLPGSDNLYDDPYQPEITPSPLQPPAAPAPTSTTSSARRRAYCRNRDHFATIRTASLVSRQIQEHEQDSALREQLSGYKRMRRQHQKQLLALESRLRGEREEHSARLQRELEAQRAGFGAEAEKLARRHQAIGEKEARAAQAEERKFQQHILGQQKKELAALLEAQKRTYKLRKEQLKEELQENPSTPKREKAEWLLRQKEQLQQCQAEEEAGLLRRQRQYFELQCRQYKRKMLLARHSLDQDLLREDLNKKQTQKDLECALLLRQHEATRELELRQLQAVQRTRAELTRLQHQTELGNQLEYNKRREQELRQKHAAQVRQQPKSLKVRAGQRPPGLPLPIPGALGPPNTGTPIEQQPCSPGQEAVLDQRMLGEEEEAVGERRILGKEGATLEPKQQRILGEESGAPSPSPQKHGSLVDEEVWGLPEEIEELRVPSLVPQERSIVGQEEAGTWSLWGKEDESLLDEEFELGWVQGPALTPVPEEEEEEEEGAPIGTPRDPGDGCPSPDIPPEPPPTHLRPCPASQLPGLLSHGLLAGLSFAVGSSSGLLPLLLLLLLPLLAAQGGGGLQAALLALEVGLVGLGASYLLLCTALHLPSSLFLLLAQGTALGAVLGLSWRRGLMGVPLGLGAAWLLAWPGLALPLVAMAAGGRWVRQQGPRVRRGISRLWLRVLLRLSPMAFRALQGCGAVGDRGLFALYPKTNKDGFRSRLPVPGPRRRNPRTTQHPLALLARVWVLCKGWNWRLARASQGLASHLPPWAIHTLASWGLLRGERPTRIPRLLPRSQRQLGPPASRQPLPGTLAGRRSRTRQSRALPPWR
As to conditions: TAOK2; 1 μM; read-out: % control.

T3 sequence (P42336 whole entry): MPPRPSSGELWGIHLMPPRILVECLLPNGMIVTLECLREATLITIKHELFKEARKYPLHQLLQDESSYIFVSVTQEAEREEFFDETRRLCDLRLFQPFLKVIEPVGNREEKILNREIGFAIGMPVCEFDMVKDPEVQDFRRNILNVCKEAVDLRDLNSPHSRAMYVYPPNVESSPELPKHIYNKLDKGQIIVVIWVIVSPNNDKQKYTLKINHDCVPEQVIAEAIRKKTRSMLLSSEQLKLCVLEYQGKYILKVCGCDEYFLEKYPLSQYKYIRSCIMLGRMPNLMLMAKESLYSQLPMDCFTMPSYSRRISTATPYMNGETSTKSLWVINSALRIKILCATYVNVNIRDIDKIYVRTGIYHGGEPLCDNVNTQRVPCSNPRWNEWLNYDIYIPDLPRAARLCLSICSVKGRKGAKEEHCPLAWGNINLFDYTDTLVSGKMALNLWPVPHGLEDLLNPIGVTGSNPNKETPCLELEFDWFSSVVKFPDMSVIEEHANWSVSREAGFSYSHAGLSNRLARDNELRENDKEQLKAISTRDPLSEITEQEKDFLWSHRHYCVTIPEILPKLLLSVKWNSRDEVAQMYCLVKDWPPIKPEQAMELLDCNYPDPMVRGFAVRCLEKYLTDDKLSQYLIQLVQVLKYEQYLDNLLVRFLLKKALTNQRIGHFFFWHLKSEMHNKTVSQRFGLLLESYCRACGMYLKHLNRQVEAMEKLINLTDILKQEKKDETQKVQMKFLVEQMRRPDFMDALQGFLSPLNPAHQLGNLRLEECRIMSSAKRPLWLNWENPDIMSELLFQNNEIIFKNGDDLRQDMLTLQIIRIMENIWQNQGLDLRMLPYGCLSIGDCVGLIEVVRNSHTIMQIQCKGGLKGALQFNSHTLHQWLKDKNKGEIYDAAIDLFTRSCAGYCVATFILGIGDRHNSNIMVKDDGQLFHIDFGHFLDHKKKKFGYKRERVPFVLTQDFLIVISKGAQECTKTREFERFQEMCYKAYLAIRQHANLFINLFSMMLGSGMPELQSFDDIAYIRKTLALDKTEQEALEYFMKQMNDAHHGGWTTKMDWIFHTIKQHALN

Consider `CNc1nc(Nc2ccc(S(=O)(=O)N3CCC(N4CCOCC4)CC3)cc2OC)nc2[nH]cc(Cl)c12` [Compound 12, 5-chloro-N2-(2-methoxy-4-((4-morpholinopiperidin-1-yl)sulfonyl)phenyl)-N4-methyl-7H-pyrrolo[2,3-d]pyrimidine-2,4-diamine], for which the remaining binding at 1 µM on panel of 468 kinases [1] came to 22%; at panel of 468 kinases [2] it was 100%; at panel of 468 kinases [3], 97%; at panel of 468 kinases [4], 62%; on panel of 468 kinases [5], 73%.
Taken in the same sequence, the figures for `CNc1nc(Nc2ccc(C(=O)N3CCC(N4CCOCC4)CC3)c3c2OCO3)nc2[nH]cc(Cl)c12` [Compound 75, (7-((5-chloro-4-(methylamino)-7H-pyrrolo[2,3-d]pyrimidin-2-yl)amino)benzo[d][1,3]dioxol-4-yl)(4-morpholinopiperidin-1-yl)methanone] were 9.6%, 100%, 93%, 69% and 77%.
For `CNc1nc(Nc2ccc(P3(=O)CCN(C4CCOCC4)CC3)cc2OC)nc2[nH]cc(Cl)c12` [Compound 77, 4-(4-((5-chloro-4-(methylamino)-7H-pyrrolo[2,3-d]pyrimidin-2-yl)amino)-3-methoxyphenyl)-1-(tetrahydro-2H-pyran-4-yl)-1,4-azaphosphinane 4-oxide] the same measures were 15%, 100%, 100%, 71% and 76%.
